Reference: patent US7642277B2, “Non-nucleoside reverse transcriptase inhibitors” (Boehringer Ingelheim International GmbH, priority 2002, dated 2010)
Like-named read-outs stand apart in the source and are kept apart here.

Columns and labels:
HIV-1 (wild type) = assay: P24 cellular assay (EC50), data identified with * in Table 9, wild type; type: cell-based; details: Human immunodeficiency virus 1
Description: (§1) P24 Cellular Assay (EC50) (Data Identified with * in Table 9).
(§2) The p24 assay is as described in WO 01/96338, the contents of which are herein incorporated by reference.
(§3) The results are listed in Table 9 as IC50(nM) and EC50 (nM).
(§4) Table legend: A=>100; B=100-50; C=<50; NT=not tested

[1] = test system: HIV-1 resistant mutant K103N/Y181C; assay: P24 cellular assay (EC50), data identified with * in Table 9, resistant mutant; type: cell-based; details: Human immunodeficiency virus 1, read-out: EC50 K103N/Y181C
Description: as §1, §2, §3, §4

[2] = target: T1, HIV-1 RT resistant mutant K103N/Y181C (Human immunodeficiency virus type 1 group M subtype B, UniProt P04585, K690N/Y768C); assay: Reverse transcriptase (RT) enzymatic assay (IC50), PicoGreen fluorescence, resistant mutant; type: biochemical
T1 construct: The reverse transcriptase (RT) enzyme assay has been adapted to a 96-well microtiter plate format

[3] = target: T2, HIV-1 RT enzyme (wild type) (Human immunodeficiency virus type 1 group M subtype B, UniProt P04585); assay: Reverse transcriptase (RT) enzymatic assay (IC50), PicoGreen fluorescence, wild type; type: biochemical
T2 construct: The reverse transcriptase (RT) enzyme assay has been adapted to a 96-well microtiter plate format
Method in brief: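 Enzyme at ≈10 nM in 50 mM Tris/HCl pH 7.8 with 60 mM NaCl, 2 mM MgCl2, 6 mM DTT, 2 mM GSH, 0.02% Chaps; 15 min preincubation with compound at room temperature, then substrate added and run 50 min at 37 °C. EDTA quench; product DNA read by PicoGreen fluorescence.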

[4] = RT enzymatic assay, wild type, read-out: IC50 WT

| Structure (SMILES) | EC50 (HIV-1 (wild type)) [nM] | EC50 [1] [nM] | IC50 [2] [nM] | IC50 [3] [nM] | IC50 [3, 4] [nM] |
| --- | --- | --- | --- | --- | --- |
| O=C(CSc1nnnn1-c1cccc2c1CCCC2)Nc1ccccc1[N+](=O)[O-] [Entry 104] | < 50 | > 100 | > 100 | < 50 |  |
| O=C(CSc1nnnn1-c1ccc2c(c1)CCC2)Nc1ccccc1[N+](=O)[O-] [Entry 105] | < 50 | > 100 | > 100 | < 50 |  |
| Cc1ccccc1-n1nnnc1SCC(=O)Nc1ccccc1[N+](=O)[O-] [Entry 109] | < 50 | > 100 | > 100 | 50 to 100 |  |
| O=C(CSc1nnnn1-c1ccccc1C(F)(F)F)Nc1ccccc1[N+](=O)[O-] [Entry 111] | < 50 | > 100 | > 100 | 50 to 100 |  |
| O=C(CSc1nnnn1-c1ccccc1Cl)Nc1ccccc1[N+](=O)[O-] [Entry 114] | < 50 | > 100 | > 100 | < 50 |  |
| COc1ccccc1-n1nnnc1SCC(=O)Nc1ccccc1[N+](=O)[O-] [Entry 115] | < 50 | > 100 | > 100 | 50 to 100 |  |
| Cc1cccc(-n2nnnc2SCC(=O)Nc2ccccc2[N+](=O)[O-])c1 [Entry 118] | < 50 | > 100 | > 100 | 50 to 100 |  |
| Cc1cccc(-n2nnnc2SCC(=O)Nc2ccccc2[N+](=O)[O-])c1C [Entry 122] | < 50 | > 100 | > 100 | < 50 |  |
| Cc1c(Cl)cccc1-n1nnnc1SCC(=O)Nc1ccccc1[N+](=O)[O-] [Entry 124] | < 50 | 50 to 100 | > 100 | < 50 |  |
| Cc1ccc(-n2nnnc2SCC(=O)Nc2ccccc2[N+](=O)[O-])c(C)c1 [Entry 125] | < 50 | > 100 | > 100 | < 50 |  |
| COc1ccc(-n2nnnc2SCC(=O)Nc2ccccc2[N+](=O)[O-])c(C)c1 [Entry 127] | < 50 | > 100 | > 100 | < 50 |  |
| Cc1cc(Cl)ccc1-n1nnnc1SCC(=O)Nc1ccccc1[N+](=O)[O-] [Entry 128] | < 50 | > 100 | > 100 | > 100 |  |
| Cc1ccc(-n2nnnc2SCC(=O)Nc2ccccc2[N+](=O)[O-])c(Cl)c1 [Entry 129] | < 50 | < 50 | > 100 | < 50 |  |
| COc1cc(-n2nnnc2SCC(=O)Nc2ccccc2[N+](=O)[O-])c(Cl)cc1Cl [Entry 133] | < 50 | > 100 | > 100 | < 50 |  |
| CC(C)Oc1cc(-n2nnnc2SCC(=O)Nc2ccccc2[N+](=O)[O-])c(Cl)cc1Cl [Entry 134] | < 50 | > 100 | > 100 | < 50 |  |
| Cc1ccc(F)cc1-n1nnnc1SCC(=O)Nc1ccccc1[N+](=O)[O-] [Entry 135] | < 50 | > 100 | > 100 | < 50 |  |
| COc1ccc(Cl)cc1-n1nnnc1SCC(=O)Nc1ccccc1[N+](=O)[O-] [Entry 136] | < 50 | > 100 | > 100 | 50 to 100 |  |
| Cc1cc(Br)cc(C)c1-n1nnnc1SCC(=O)Nc1ccccc1[N+](=O)[O-] [Entry 140] | < 50 | < 50 | > 100 | < 50 |  |
| Cc1cc(C)c(-n2nnnc2SCC(=O)Nc2ccccc2[N+](=O)[O-])c(C)c1 [Entry 141] | < 50 | < 50 | > 100 | > 100 |  |
| O=C(CSc1nnnn1-c1cccc2ccccc12)Nc1ccc(C(=O)O)cc1Cl [Entry 236] | > 100 | > 100 | > 100 | 50 to 100 |  |
| N#Cc1ccc(NC(=O)CSc2nnnn2-c2cccc3ccccc23)c(Cl)c1 [Entry 239] | < 50 | > 100 | > 100 | 50 to 100 |  |
| CC(Sc1nnnn1-c1cccc2ccccc12)C(=O)Nc1ccccc1[N+](=O)[O-] (stereo not drawn) [Entry 301] | < 50 | > 100 | > 100 | 50 to 100 |  |
| O=C(CSc1nncn1-c1cccc2ccccc12)Nc1ccccc1[N+](=O)[O-] [Entry 402, 2-{{4-(1-Naphthalenyl)-4H-1,2,4-triazol-3-yl}thio}-N-(2-nitrophenyl)acetamide] | < 50 | > 100 | > 100 |  | 50 to 100 |
| Cc1cc(C)c(-n2nnnc2SCC(=O)Nc2ccccc2Cl)c(C)c1 [Entry 421] | < 50 | > 100 | > 100 |  | < 50 |
